For one data set, the system named is MCF-10A cells. Nature of the data set: MTT assay, MCF-10A. Type of data set: cell-based, human. Conditions: for IC50: Homo sapiens, MCF-10A, 24 h, 0 to 250 μM, read-out: IC50 Non-Malignant Breast Epithelial Cells (MCF-10A). The method, then:
(§1) To establish the cytotoxic effect of the nitrogenous derivatives, cells were treated with various concentrations of the drugs ranging from 0 to 250 μM. Following a 24 h incubation period, cell viability was assessed using the MTT assay. Mitoxantrone served as a positive control to evaluate growth inhibition. Since heterogeneity is a hallmark of cancer, the study included cell lines with diverse genomic and proteomic profiles. […] In this regard, further optimization would be required to increase the selective therapeutic potential of compound 9. To determine whether the anti-proliferative effect of the nitrogen derivatives could be translated to other malignancies, we tested the cytotoxic effect on the HCT8 (colorectal cancer) cell line. HCT8 is an adenocarcinoma driven by the Kirsten Rat Sarcoma (KRAS) mutation, unlike MCF-10A [28].
(§2) The MTT assay was utilized to examine the imidazole derivatives’ anti-proliferative activity against MCF-10A, MDA-MB-231, and HCT8 cell lines, purchased from ATCC, USA [47]. Firstly, 5 × 10^3 cells/well were seeded in a 96-well plate in 100 μL of growth medium and were subsequently cultured overnight with various concentrations of each compound ranging from 0 to 250 µM [48]. The media was aspirated, and 50 µL of serum-free media and 50 µL of MTT solution were added to each well. Next, cells were incubated at 37 °C for 3 h, then 150 µL of MTT solvent was added into each well. After that, plates were wrapped in foil and agitated for 15 min on an orbital shaker. Finally, the absorbance was measured within 1 h at OD590 nm. Half-maximal inhibitory concentration IC50 values (μM) were calculated for each compound from the dose–response curve. Experiments were performed in triplicates.

For data set [1], the system named is tubulin in MDA-MB-231 cells. As to the kind of experiment: Tubulin staining and imaging (microtubular network). The conditions noted are these: 48 h; for effect on the microtubular network / tubulin: MDA-MB-231, 15.6 and 31 µM. Type of data set: cell-based, human. An excerpt: An established cytotoxic mechanism of action of some nitrogenous heteroaromatic compounds is through the inhibition of tubulin. Normal microtubule function is essential during mitosis for mitotic spindle formation to allow chromatid separation, without which cell replication would cease. In addition, microtubules are critical for maintaining the cytoskeletal integrity of normal cells. Currently used cytotoxic anti-neoplastic classes of drugs such as the taxanes and vinca alkaloids also either inhibit microtubule assembly or disassembly, thus preventing mitosis from occurring. Therefore, we investigated the effects of compounds 8 and 9 on the modulation of microtubule function by assessing their effect on tubulin.
MDA- MB 231 cells were treated with compounds 8 and 9 at two concentrations, 15.6 and 31.25 µM, for 48 h. The cells were stained with tubulin tracker™ Green (Cat #T34075) in HBSS for 30 min and nucleus stain HOECHST33342 (blue) for 5 min. The samples were imaged with Zeiss laser-scanning 780 microscopes.
Following the standard protocol, tubulin and microtubule-associated proteins (MAPs) were developed, accompanied by two cycles of polymerization and depolymerization. MDA-MB231 cells were treated with compounds 8 and 9 at concentrations of 31.25 and 15.6 µM for 48 h. Subsequently, the media was replaced with HBSS, and the MDA-MB231 cells were stained with tubulin tracker™ Green 51(Cat #T34075) for 30 min and HOECHST33342 for 5 min. The Zeiss laser-scanning 780 microscope was used for imaging.

The next data set relates to HCT8 cells. Nature of the data set: CellTiter-Glo assay, HCT8. Type of data set: cell-based. Conditions: Homo sapiens, HCT-8, 24 h, read-out: IC50 Colorectal Cancer HCT8. The protocol: To validate the anti-proliferative activity of the imidazole derivatives, the compounds were tested against several cancer cell lines, which included breast cancer (MDA-MB-231, KAIMRC1, and KAIMRC2), colorectal cancer (HCT8), and acute promyelocytic leukemia cells (HL60). KAIMRC1 was isolated from a person with stage II-B breast cancer and is ER+/PR+ and HER2-. In comparison, KAIMRC2 was isolated from a person with metastasized breast cancer and is a triple-negative (ER-/PR-, and HER2-) tumor cell line.
The CellTiter-Glo assay (Promega™, Madison, WI, USA) was used to evaluate imidazole and oxazolone derivatives cytotoxicity against various cancer cell lines; MCF-10A, HL60, MDA-MB-231, and HCT8, purchased from ATCC, USA, except KAIMRC1 and KAIMRC2, which were isolated, established, and characterized in the core laboratory facility KAIMRC, Riyadh, Saudi Arabia. The cells were seeded in white 96-well plates at a density of 5 × 10^3 cells/well in a 100 μL of growth medium with various concentrations of each compound ranging from 0 to 250 µM. Cells were incubated at 37 °C for 24 h. Plates were equilibrated at RT for 30 min. A quantity of 100 µL of CellTiter-Glo reagent was added to each well and mixed for 2 min on an orbital shaker. Plates were incubated for 10 min at RT before measuring the luminescence using an Envision plate reader (Perkin Elmer). Half-maximal inhibitory concentration IC50 values (μM) were calculated for each imidazole derivative from the dose–response curve. The cytotoxic effect at a concentration <10 µM was considered strongly active and from 11 to 100 µM was considered moderately active, whereas above 100 µM was deemed non-active. Mitoxantrone was utilized as a positive control. Experiments were performed in triplicates.
(In ATP-based viability assays light output follows the ATP content of the culture.)

Data set [2] has as its system MDA-MB-231 cells. As to the kind of experiment: MTT assay, MDA-MB-231. Type of data set: cell-based, human. The conditions noted are these: 0 to 250 μM, read-out: IC50 Breast Cancer (MDA-MB-231). The protocol:
as §1, §2
In general terms: Formazan colour is commonly taken as a measure of viable cells.

Data set [3] has as its system MDA-MB-231 cells. As to the kind of experiment: ApoTox-Glo triplex assay (caspase 3/7). The conditions noted are these: MDA-MB-231, 24 h, various concentrations. Type of data set: cell-based, human. From the text:
The ApoTox-Glo® triplex assay was utilized to further evaluate the effect of compound 9 on the MDA-MB-231 cancer cell viability, cytotoxicity, and apoptosis. This assay employs a luminogenic peptide substrate for caspase 3/7 to measure caspase activity, which is used as a marker for apoptosis within the cells. […] However, since this assay was time-dependent, the level of cytotoxicity (Figure 7B) determined, in this case, was not a true representative of the compound’s cytotoxic potential; it is reasonable to say that at the endpoint of apoptosis (Figure 7C), a heightened level of cytotoxicity would be observed.
The Promega ApoTox-Glo® triplex assay was conducted as described by the manufacturer. Briefly, the cells were incubated at 37 °C for 12 h and then treated for 24 h with various concentrations of compound 9 [29, 30]. Next, 100 µL of the Viability and Cytotoxicity Reagent was added to each well and briefly mixed on an orbital shaker. Plates were incubated at 37 °C for 30 min, and the fluorescence was measured at the following two-wavelength sets—400Ex/505Em (Viability) and 485Ex/520 Em (Cytotoxicity)—using the Envision plate reader (Perkin Elmer). […] Finally, to determine the level of apoptosis, the luminescence associated with caspase 3/7 activation was measured using an Envision plate reader (Perkin Elmer).

Like-named read-outs stand apart in the source and are kept apart here.

As a reminder, the IC50 is the midpoint of a concentration-inhibition curve. As for `COc1cccc(/C=C2\N=C(c3ccccc3)N(Nc3ccc([N+](=O)[O-])cc3[N+](=O)[O-])C2=O)c1` [Compound 9], the IC50 in the data set on MCF-10A cells came out at 9.52 µM; with HCT8 cells it was 22.1 µM; in the data set on MDA-MB-231 cells [2] (Homo sapiens, MDA-MB-231, 24 h) it was 17 µM. Also, the microtubule inhibition entry in data set [1] (MDA-MB-231, 31 µM) was “nearly complete microtubule inhibition”. In addition, in data set [1], the “effect on the microtubular network / tubulin” value was “interfered with the microtubular network”. For the same molecule, the “caspase 3/7-mediated apoptosis” value with MDA-MB-231 cells [3] is reported as “induced caspase 3-/7-mediated apoptosis in a dose-dependent manner”.
In the case of `O=C1/C(=C/c2ccccc2)N=C(c2ccccc2)N1Nc1ccc([N+](=O)[O-])cc1[N+](=O)[O-]` [Compound 8], in the data set on MCF-10A cells, the “IC50 in MCF-10A relative to MDA-MB231 (cytotoxic selectivity)” value was “six-fold higher”. For the same molecule, the IC50 in the data set on MCF-10A cells came out at 30.7 µM; in the data set with HCT8 cells, 33.1 µM; in the data set with MDA-MB-231 cells [2] (24 h), 4.76 µM; with MDA-MB-231 cells [2] (Homo sapiens, MDA-MB-231, 24 h), 4.7 µM. Moreover, the “effect on the microtubular network / tubulin” value in data set [1] is “no effect on tubulin”.
